± gives the expanded uncertainty stated by the source.
Assay: xn = mol fraction of the nth substance listed
Conditions: Liquid

CCO [ethanol] + O
Conditions | mass density [kg/m3]
298.15 K, 30000 kPa, x1 = 0.35 | 907.2 ± 0.4
298.15 K, 30000 kPa, x1 = 0.4034 | 895.5 ± 0.4
298.15 K, 30000 kPa, x1 = 0.4501 | 885.7 ± 0.5
298.15 K, 30000 kPa, x1 = 0.498 | 876.8 ± 0.5
298.15 K, 30000 kPa, x1 = 0.5501 | 867.6 ± 0.5
298.15 K, 30000 kPa, x1 = 0.5998 | 859.5 ± 0.5
298.15 K, 30000 kPa, x1 = 0.6489 | 852 ± 0.6
298.15 K, 30000 kPa, x1 = 0.6967 | 845.1 ± 0.6
298.15 K, 30000 kPa, x1 = 0.7475 | 838.5 ± 0.6
298.15 K, 30000 kPa, x1 = 0.7996 | 831.9 ± 0.6
298.15 K, 30000 kPa, x1 = 0.8484 | 825.9 ± 0.6
298.15 K, 30000 kPa, x1 = 0.8993 | 820 ± 0.6
298.15 K, 30000 kPa, x1 = 0.9503 | 814.5 ± 0.7
298.15 K, 30000 kPa, x1 = 1 | 808.9 ± 0.7
298.15 K, 40000 kPa, x1 = 0.003 | 1012.7 ± 0.3
298.15 K, 40000 kPa, x1 = 0.0042 | 1011.5 ± 0.3
298.15 K, 40000 kPa, x1 = 0.0082 | 1010 ± 0.3
298.15 K, 40000 kPa, x1 = 0.0119 | 1008.3 ± 0.3
298.15 K, 40000 kPa, x1 = 0.0158 | 1006.4 ± 0.3
298.15 K, 40000 kPa, x1 = 0.0184 | 1005 ± 0.3
298.15 K, 40000 kPa, x1 = 0.0219 | 1004.1 ± 0.2
298.15 K, 40000 kPa, x1 = 0.0255 | 1002.4 ± 0.3
298.15 K, 40000 kPa, x1 = 0.0279 | 1000.8 ± 0.2
298.15 K, 40000 kPa, x1 = 0.0315 | 1000 ± 0.2
298.15 K, 40000 kPa, x1 = 0.0366 | 997.6 ± 0.3
298.15 K, 40000 kPa, x1 = 0.0392 | 996.4 ± 0.2
298.15 K, 40000 kPa, x1 = 0.0439 | 995.1 ± 0.3
298.15 K, 40000 kPa, x1 = 0.0483 | 993.3 ± 0.3
298.15 K, 40000 kPa, x1 = 0.0516 | 992.7 ± 0.2
298.15 K, 40000 kPa, x1 = 0.0559 | 991.5 ± 0.3
298.15 K, 40000 kPa, x1 = 0.06 | 990.1 ± 0.3
298.15 K, 40000 kPa, x1 = 0.0652 | 988.4 ± 0.3
298.15 K, 40000 kPa, x1 = 0.0679 | 987.6 ± 0.3
298.15 K, 40000 kPa, x1 = 0.0722 | 986.3 ± 0.3
298.15 K, 40000 kPa, x1 = 0.0801 | 983.7 ± 0.3
298.15 K, 40000 kPa, x1 = 0.084 | 983.2 ± 0.3
298.15 K, 40000 kPa, x1 = 0.0879 | 981.9 ± 0.3
298.15 K, 40000 kPa, x1 = 0.0926 | 980.6 ± 0.3
298.15 K, 40000 kPa, x1 = 0.0958 | 979.8 ± 0.3
298.15 K, 40000 kPa, x1 = 0.1006 | 978.5 ± 0.3
298.15 K, 40000 kPa, x1 = 0.1111 | 975.4 ± 0.3
298.15 K, 40000 kPa, x1 = 0.1225 | 972.2 ± 0.3
298.15 K, 40000 kPa, x1 = 0.1296 | 970.4 ± 0.3
298.15 K, 40000 kPa, x1 = 0.1402 | 967.3 ± 0.3
298.15 K, 40000 kPa, x1 = 0.151 | 964.3 ± 0.3
298.15 K, 40000 kPa, x1 = 0.1601 | 961.7 ± 0.3
298.15 K, 40000 kPa, x1 = 0.1703 | 958.9 ± 0.3
298.15 K, 40000 kPa, x1 = 0.18 | 956.2 ± 0.3
298.15 K, 40000 kPa, x1 = 0.1903 | 953.3 ± 0.3
298.15 K, 40000 kPa, x1 = 0.1996 | 950.5 ± 0.4
298.15 K, 40000 kPa, x1 = 0.2269 | 942.9 ± 0.4
298.15 K, 40000 kPa, x1 = 0.2502 | 936.7 ± 0.4
298.15 K, 40000 kPa, x1 = 0.2745 | 930.3 ± 0.4
298.15 K, 40000 kPa, x1 = 0.3009 | 923.7 ± 0.4
298.15 K, 40000 kPa, x1 = 0.35 | 911.9 ± 0.5
298.15 K, 40000 kPa, x1 = 0.4034 | 900.4 ± 0.5
298.15 K, 40000 kPa, x1 = 0.4501 | 890.8 ± 0.5
298.15 K, 40000 kPa, x1 = 0.498 | 882 ± 0.6
298.15 K, 40000 kPa, x1 = 0.5501 | 873 ± 0.6
298.15 K, 40000 kPa, x1 = 0.5998 | 865.1 ± 0.6
298.15 K, 40000 kPa, x1 = 0.6489 | 857.7 ± 0.6
298.15 K, 40000 kPa, x1 = 0.6967 | 851 ± 0.7
298.15 K, 40000 kPa, x1 = 0.7475 | 844.5 ± 0.7
298.15 K, 40000 kPa, x1 = 0.7996 | 838.1 ± 0.7
298.15 K, 40000 kPa, x1 = 0.8484 | 832.3 ± 0.7
298.15 K, 40000 kPa, x1 = 0.8993 | 826.5 ± 0.8
298.15 K, 40000 kPa, x1 = 0.9503 | 821 ± 0.8
298.15 K, 40000 kPa, x1 = 1 | 815.7 ± 0.8
323.15 K, 100 kPa, x1 = 0.003 | 986.5 ± 0.2
323.15 K, 100 kPa, x1 = 0.0042 | 985.4 ± 0.2
323.15 K, 100 kPa, x1 = 0.0082 | 984 ± 0.3
323.15 K, 100 kPa, x1 = 0.0119 | 982.7 ± 0.3
323.15 K, 100 kPa, x1 = 0.0158 | 980.5 ± 0.3
323.15 K, 100 kPa, x1 = 0.0184 | 979.2 ± 0.3
323.15 K, 100 kPa, x1 = 0.0219 | 978 ± 0.3
323.15 K, 100 kPa, x1 = 0.0255 | 976.5 ± 0.3
323.15 K, 100 kPa, x1 = 0.0279 | 974.8 ± 0.3
323.15 K, 100 kPa, x1 = 0.0315 | 973.9 ± 0.3
323.15 K, 100 kPa, x1 = 0.0366 | 971.4 ± 0.3
323.15 K, 100 kPa, x1 = 0.0392 | 970.2 ± 0.3
323.15 K, 100 kPa, x1 = 0.0439 | 968.6 ± 0.3
323.15 K, 100 kPa, x1 = 0.0483 | 966.6 ± 0.3
323.15 K, 100 kPa, x1 = 0.0516 | 965.9 ± 0.3
323.15 K, 100 kPa, x1 = 0.0559 | 964.5 ± 0.3
323.15 K, 100 kPa, x1 = 0.06 | 962.9 ± 0.3
323.15 K, 100 kPa, x1 = 0.0652 | 960.9 ± 0.3
323.15 K, 100 kPa, x1 = 0.0679 | 960.2 ± 0.3
323.15 K, 100 kPa, x1 = 0.0722 | 958.3 ± 0.3
323.15 K, 100 kPa, x1 = 0.0801 | 955.1 ± 0.3
323.15 K, 100 kPa, x1 = 0.084 | 954.7 ± 0.3
323.15 K, 100 kPa, x1 = 0.0879 | 952.9 ± 0.3
323.15 K, 100 kPa, x1 = 0.0926 | 951.4 ± 0.3
323.15 K, 100 kPa, x1 = 0.0958 | 950.1 ± 0.3
323.15 K, 100 kPa, x1 = 0.1006 | 948.5 ± 0.3
323.15 K, 100 kPa, x1 = 0.1111 | 944.7 ± 0.3
323.15 K, 100 kPa, x1 = 0.1225 | 940.6 ± 0.3
323.15 K, 100 kPa, x1 = 0.1296 | 938.2 ± 0.3
323.15 K, 100 kPa, x1 = 0.1402 | 934.5 ± 0.3
323.15 K, 100 kPa, x1 = 0.151 | 930.7 ± 0.3
323.15 K, 100 kPa, x1 = 0.1601 | 927.5 ± 0.3
323.15 K, 100 kPa, x1 = 0.1703 | 924 ± 0.3
